# Measured values as given in patent US8853234B2, “Quinolone analogs and methods related thereto” (Senhwa Biosciences, Inc., priority 2007, dated 2014).
# Like-named read-outs stand apart in the source and are kept apart here.
# Key:
# [1] = system: A375 cell xenograft tumors; test: A375 cell xenograft tumor inhibition; assay type: in vivo, rodents; conditions: seven days
# Procedure: (§1) Compounds A1, A2 and A3 also were tested for tumor inhibition in xenograft rodents. Rodents having A375 cell xenograft tumors were administered 100 mg/kg, 75 mg/kg and 100 mg/kg doses of Compound A1, A2 and A3, respectively, by oral delivery twice a day. […] Also, rodents having MiaPaCa xenograft tumors were administered 100 mg/kg doses of Compound A1 and A3 by oral delivery twice per day.
# [2] = system: a variety of cell types that are representative of different cancers; test: Alamar Blue cell viability assay, variety of cell types representative of different cancers (Tables 12-14); assay type: cell-based; conditions: read-out: IC50
# Procedure: A representative cell-proliferation assay protocol using Alamar Blue dye (stored at 4° C., use 20 ul per well) is described hereafter.
# 96-Well Plate Setup and Compound Treatment
# a. Split and trypsinize cells.
# b. Count cells using hemocytometer.
# c. Plate 4,000-5,000 cells per well in 100 μl of medium and seed into a 96-well plate according to the following plate layout. Add cell culture medium only to wells B10 to B12. Wells B1 to B9 have cells but no compound added.
# d. Add 100 μl of 2× drug dilution to each well in a concentration shown in the plate layout above. At the same time, add 100 μl of media into the control wells (wells B10 to B12). Total volume is 200 μl/well.
# e. Incubate four (4) days at 37° C., 5% CO2 in a humidified incubator.
# f. Add 20 μl Alamar Blue reagent to each well.
# g. Incubate for four (4) hours at 37° C., 5% CO2 in a humidified incubator.
# h. Record fluorescence at an excitation wavelength of 544 nm and emission wavelength of 590 nm using a microplate reader.
# In the assays, cells are cultured with a test compound for approximately four days, the dye then is added to the cells and fluorescence of […] dye is detected after approximately four hours. Different types of cells can be utilized in the assays (e.g., HCT-116 human colorectal carcinoma cells, PC-3 human prostatic cancer cells and MiaPaca human pancreatic carcinoma cells). Anti-proliferative effects of representative compounds are provided hereafter.
# (§2) Inhibitory activity on cell proliferation of Compounds A1, A2 and A3 was determined using an Alamar Blue cell viability assay (e.g., Example 39 herein) using a variety of cell types that are representative of different cancers Inhibition values (IC50) are presented in micromolar concentrations in the following table (Table 12).
# as §2, with “representative compounds of the invention” for “Compounds A1, A2 and A3”, “Table 13 and Table 14.” for “the following table (Table 12).”
# MiaPaCa xenograft tumors = test: MiaPaCa xenograft tumor inhibition; assay type: in vivo, rodents; conditions: 100 mg/kg oral twice per day, twenty-two days
# Procedure: as §1
# [3] = Homo sapiens, A-375, A375, Skin, Epithelial
# [4] = Homo sapiens, BXPC-3, BXPC3, Pancreas, Epithelial
# [5] = Homo sapiens, HCT-116, HCT-116, Colorectal, Epithelial
# [6] = Homo sapiens, HL60/MX2, HL60/MX2, Hematopoetic, Lymphoma
# [7] = Homo sapiens, HL-60, HL60, Hematopoetic, Lymphoma
# [8] = Homo sapiens, HT-29, HT-29, Colorectal, Epithelial
# [9] = Homo sapiens, Jurkat, Hematopoetic, Lymphoma
# [10] = Homo sapiens, K562, K562, Hematopoetic, Lymphoblast
# [11] = Homo sapiens, LNCaP, Prostate, Fibroblastoid
# [12] = Homo sapiens, MDA-MB-231, MDA-MB-231, Breast, Epithelial
# [13] = Homo sapiens, MIA PaCa-2, Miapaca-2, Pancreas, Epithelial
# [14] = Homo sapiens, NCI-H460, H460, Lung, Epithelial
# [15] = Homo sapiens, NCI-H1299, H1299, Lung, NSCL
# [16] = Homo sapiens, SAOS-2, Saos-2, Bone, Epithelial
# [17] = Homo sapiens, SK-MES-1, SK-MES-1, Lung, Sqaumous carcinoma
# [18] = Homo sapiens, SK-OV-3, SK-OV-3, Ovary, Epithelial
# [19] = Homo sapiens, U2OS, Bone, Epithelial
# [20] = Miapaca-R5, Pancreas, Epithelial
# [21] = Homo sapiens, MCF7, MCF-7, Breast, Mammary carcinoma
# [22] = Homo sapiens, PANC-1, PANC-1, Pancreas, Epithelial
Compound,"IC50 [2, 3]","IC50 [2, 4]","IC50 [2, 5]","IC50 [2, 6]","IC50 [2, 7]","IC50 [2, 8]","IC50 [2, 9]","IC50 [2, 10]","IC50 [2, 11]","IC50 [2, 12]","IC50 [2, 13]","IC50 [2, 14]","IC50 [2, 15]","IC50 [2, 16]","IC50 [2, 17]","IC50 [2, 18]","IC50 [2, 19]","IC50 [2, 20]","IC50 ([2]; PC-3, Prostate, Epithelial)",A375 tumor growth inhibition relative to untreated control group ([1]; 100 mg/kg oral twice a day),further results
Cc1cnc(CNC(=O)c2c(=O)c3ccc(N4CCCN(C)CC4)nc3n3c2sc2ccccc23)cn1 [Compound A2],0.023 µM,0.035 µM,0.032 µM,0.147 µM,0.083 µM,0.042 µM,0.025 µM,0.042 µM,0.029 µM,0.052 µM,0.036 µM,0.09 µM,0.069 µM,0.124 µM,0.021 µM,0.064 µM,0.089 µM,0.034 µM,0.089 µM,–,"A375 tumor growth inhibition relative to untreated control group ([1]; 75 mg/kg oral twice a day): significantly inhibited A375 tumor growth; IC50 ([2]; Homo sapiens, COLO 205, COLO-205, Colorectal, Epithelial): 0.096 µM"
O=C(NCCNC1CC1)c1c(=O)c2ccc(N3CCOCC3)nc2n2c1sc1ccccc12 [Compound A3],0.07 µM,0.071 µM,0.093 µM,0.219 µM,0.16 µM,0.102 µM,0.06 µM,0.12 µM,0.045 µM,0.139 µM,0.122 µM,0.123 µM,0.102 µM,0.249 µM,0.134 µM,0.279 µM,0.476 µM,0.133 µM,0.563 µM,significantly inhibited A375 tumor growth,"MiaPaCa tumor growth inhibition relative to untreated control group (MiaPaCa xenograft tumors): significantly inhibited MiaPaCa tumor growth; IC50 [2, 21]: 0.267 µM; IC50 [2, 22]: 0.103 µM"
Cc1cnc(CNC(=O)c2c(=O)c3ccc(N4CCN(C)CC4)nc3n3c2sc2ccccc23)cn1 [Compound A1],0.09 µM,0.056 µM,0.097 µM,0.244 µM,0.264 µM,0.073 µM,0.069 µM,0.14 µM,0.077 µM,0.105 µM,0.103 µM,0.142 µM,0.112 µM,0.264 µM,0.105 µM,0.215 µM,0.752 µM,0.149 µM,0.6 µM,significantly inhibited A375 tumor growth,"MiaPaCa tumor growth inhibition relative to untreated control group (MiaPaCa xenograft tumors): significantly inhibited MiaPaCa tumor growth; IC50 [2, 21]: 0.348 µM; IC50 [2, 22]: 0.148 µM"
